Results published in US4032654A, “Water-soluble, liquid concentrates of S-methyl-[(methyl-carbamoyl)oxy]-thioacetimidate and methyl N', N'-dimethyl-N-[(methyl-carbamoyl)oxy]-1-thiooxamimidate” (priority 1975, dated 1977).
≈ marks a conversion by molar mass, not a printed value. Where “and” joins values, the source holds several entries; their conditions need not be identical. Equal entries are not always repeated. Where two headings read alike, the source gives them in different places.

Key:
physchem [1] = settings: for solubility: Oxamyl alone in solvent
Method: Solubility of Methomyl and Oxamyl (2:1 wt. ratio) in CH3 OH/H2 O at -6° C.
(§1) Methomyl and oxamyl were added to various methanol:water solvent systems ranging from 100 wt. % CH3 OH to 30 wt. % CH3 OH:70 wt. % H2 O. The methomyl and oxamyl were dissolved in a 2:1 weight ratio of 50 wt. % methomyl to 25 wt. % oxamyl in the solvent systems. The samples were equilibrated at -6° C. in a constant temperature freezer after which they were seeded with methomyl and oxamyl crystals to ensure crystallization of both materials. After crystal-liquid equilibrium was assured, liquid was removed at -6° C. and assayed for methomyl and oxamyl. Solids were also removed at -6° C., washed with hexane and dried. The solids were then dissolved in methanol to yield a 10 wt. % solution. This solution was evaluated by thin layer chromatography (TLC) to ensure the solids consisted of both methomyl and oxamyl.

[2] = Method: Solubility of Methomyl and Oxamyl 80:20 Wt. Ratio Acetone:H2 O
Methomyl and oxamyl were dissolved in a solvent system consisting of 80 wt. % acetone and 20 wt. % water separately and in 1:1, 2:1 and 1:2.5 wt. ratios of methomyl and oxamyl. These solutions were equilibrated at -6° C. and were seeded with methomyl and/or oxamyl. They remained at -6° C. until solid-liquid equilibrium was assured. Liquid was removed from each sample at -6° C. and assayed for methomyl and oxamyl. Solids were also removed at -6° C., washed, dried and dissolved in methanol to yield a 10 wt. % solution which was evaluated by TLC for oxamyl and methomyl.

[3] = remark: listed apart in the source
Method: Methomyl and Oxamyl Solubility In Cyclohexanone, Cyclohexanol, CH3 OH and H2 O at -6° C.
Methomyl and oxamyl were dissolved separately and in weight ratios of 1:1, 2:1 and 1:2.5 methomyl to oxamyl in a solvent system consisting of 30 wt. % cyclohexanone, 30 wt. % cyclohexanol, 30 wt. % water and 10 wt. % methanol. These solutions were equilibrated at -6° C. and seeded with methomyl and/or oxamyl crystals. The samples of liquid and solids remained at -6° C. until solid-liquid equilibrium was assured. A liquid sample was removed from each at -6° C. and assayed for methomyl and/or oxamyl. Solids were also isolated at -6° C., washed, dried and dissolved in CH3 OH to yield a 10% solution which was analyzed by TLC to ensure both methomyl and oxamyl crystals were present in the solids of the combination sample. All such solids contained both oxamyl and methomyl.
SOLUBILITY OF METHOMYL AND OXAMYL (2:1, 1:1 and 1:2.5 Wt.
RATIOS) IN CYCLOHEXANONE, CYCLOHEXANOL, CH3 OH AND H2 O

[4] = remark: listed apart in the source
Method: Methomyl and/or oxamyl were added to a solvent system consisting of 60% cyclohexanone, 10% methanol and 30% water at room temperature at a concentration higher than the solubility limit at -6° C. The methomyl and oxamyl were added together, at weight ratios of 2:1, 1:1 and 1:2.5. The solutions were cooled to -6° C. and seeded with methomyl and/or oxamyl to initiate crystallization. The solutions remained at -6° C. until equilibrium was assured. The supernatant liquid in each sample was analyzed for methomyl and oxamyl by liquid chromatography.

physchem [5] = settings: for solubility: Oxamyl alone in solvent; remark: listed apart in the source
Method: as §1, with “The methomyl and oxamyl were dissolved in a 2:1 weight ratio of 50 wt. % methomyl to 25 wt. % oxamyl in the solvent systems.” left out
Solubility of Methomyl and Oxamyl 1:2.5 wt. ratio in CH3 OH:H2 O at -6° C.
Example 3 was repeated by dissolving methomyl and oxamyl in a 1:2.5 weight ratio in the same solvent systems under the same conditions.

physchem [6] = settings: for solubility: Oxamyl alone in solvent; remark: listed apart in the source
Method: Methomyl and oxamyl were added to various methanol:water solvent systems ranging from 100% CH3 OH to 40% CH3 OH:60% H2 O. The methomyl and oxamyl were dissolved separately or combined on a 1:1 weight ratio in the solvent systems at room temperature at a concentration exceeding the solubility limit at -6° C. Each sample was seeded with methomyl and/or oxamyl at -6° C. and allowed to crystallize until equilibrium was established. The supernatant liquid of each sample was assayed for methomyl and/or oxamyl by liquid chromatography.

## CNC(=O)ON=C(SC)C(=O)N(C)C [Oxamyl, methyl N',N'-dimethyl-N-[(methylcarbamoyl)oxy]-1-thiooxamimidate]
Physchem [1]
  Solubility, both actives in solvent: Oxamyl: 113 gms/100 gms
Physchem [1]; 40/60 ch3oh/h2o, alone, -6° C.
  solubility: 209 mg/mL (≈ 953 mM)
Physchem [1]; 50/50 ch3oh/h2o, alone, -6° C.
  solubility: 290 mg/mL (≈ 1320 mM)
Physchem [1]; 60/40 ch3oh/h2o, alone, -6° C.
  solubility: 397 mg/mL (≈ 1810 mM)
Physchem [1]; 70/30 ch3oh/h2o, alone, -6° C.
  solubility: 422 mg/mL (≈ 1920 mM)
Physchem [1]; 80/20 ch3oh/h2o, alone, -6° C.
  solubility: 447 mg/mL (≈ 2040 mM)
Physchem [1]; 90/10 ch3oh/h2o, alone, -6° C.
  solubility: 406 mg/mL (≈ 1850 mM)
Physchem [1]; alone, 100/0 CH3OH/H2O, -6° C.
  Solubility, Oxamyl alone in solvent: 33.3 gms/100 gms
Physchem [1]; methanol:water solvent systems, 2:1 wt. ratio dissolved initially, -6° C.
  Solubility change when dissolved in combination: increased
[2]
  Solubility, both actives in solvent: Oxamyl: 84.6 gms/100 gms solvent and 79.3 gms/100 gms solvent and 82.8 gms/100 gms solvent
[2]; alone, 80:20 wt acetone/H2O, -6° C.
  Solubility, Oxamyl alone in solvent: 52.0 gms/100 gms solvent
[3]
  Solubility, both actives in solvent: Oxamyl: 83.0 gms/100 gms solvent and 63.7 gms/100 gms solvent and 61.8 gms/100 gms solvent
[3]; alone, 30% cyclohexanone, 30% cyclohexanol, 30% water, 10% methanol, -6° C.
  Solubility, Oxamyl alone in solvent: 41.5 gms/100 gms solvent
[4]
  Solubility, both actives in solvent: Oxamyl: 84.8 gms/100 gms solvent and 80.1 gms/100 gms solvent and 82.7 gms/100 gms solvent
[4]; alone, 60% cyclohexanone, 10% methanol, 30% water, -6° C.
  Solubility, Oxamyl alone in solvent: 48.4 gms/100 gms solvent
Physchem [5]
  Solubility, both actives in solvent: Oxamyl: 72.3 gms/100 gms
Physchem [5]; 40/60 ch3oh/h2o, alone, -6° C.
  solubility: 209 mg/mL (≈ 953 mM)
Physchem [5]; 50/50 ch3oh/h2o, alone, -6° C.
  solubility: 291 mg/mL (≈ 1330 mM)
Physchem [5]; 60/40 ch3oh/h2o, alone, -6° C.
  solubility: 396 mg/mL (≈ 1810 mM)
Physchem [5]; 70/30 ch3oh/h2o, alone, -6° C.
  solubility: 423 mg/mL (≈ 1930 mM)
Physchem [5]; 80/20 ch3oh/h2o, alone, -6° C.
  solubility: 448 mg/mL (≈ 2040 mM)
Physchem [5]; 90/10 ch3oh/h2o, alone, -6° C.
  solubility: 404 mg/mL (≈ 1840 mM)
Physchem [5]; alone, 100/0 CH3OH/H2O, -6° C.
  Solubility, Oxamyl alone in solvent: 33.3 gms/100 gms
Physchem [6]
  Solubility, both actives in solvent: Oxamyl: 80 gms/100 gms
Physchem [6]; 40/60 ch3oh/h2o, alone, -6° C.
  solubility: 209 mg/mL (≈ 953 mM)
Physchem [6]; 50/50 ch3oh/h2o, alone, -6° C.
  solubility: 290 mg/mL (≈ 1320 mM)
Physchem [6]; 60/40 ch3oh/h2o, alone, -6° C.
  solubility: 397 mg/mL (≈ 1810 mM)
Physchem [6]; 70/30 ch3oh/h2o, alone, -6° C.
  solubility: 422 mg/mL (≈ 1920 mM)
Physchem [6]; 80/20 ch3oh/h2o, alone, -6° C.
  solubility: 447 mg/mL (≈ 2040 mM)
Physchem [6]; 90/10 ch3oh/h2o, alone, -6° C.
  solubility: 406 mg/mL (≈ 1850 mM)
Physchem [6]; alone, 100/0 CH3OH/H2O, -6° C.
  Solubility, Oxamyl alone in solvent: 33.3 gms/100 gms
Physchem [6]; summary of Examples 2-7
  Solubility when dissolved together in the solvents taught: increases in solubility occur
